Consider nine compounds from ChEMBL document CHEMBL1201862, “PubChem BioAssay data set” (2004).

Activity calls are given as the source filed them.

The nature of test [1]: Counterscreen for activators of the function of SWI/SNF related, matrix associated, actin dependent regulator of chromatin, subfamily a, member 2 (SMARCA2, BRM): Luminescence-based cell-based high throughput dose response assay to identify non-selective compounds using the VP16 reporter assay. The format is functional.
For test [2], the target named is SWI/SNF-related matrix-associated actin-dependent regulator of chromatin subfamily A member 2 (Homo sapiens, UniProt P51531). Briefly: Luminescence-based cell-based high throughput dose response assay to identify activators of the function of SWI/SNF related, matrix associated, actin dependent regulator of chromatin, subfamily a, member 2 (SMARCA2, BRM). The format is functional.
Sequence of SWI/SNF-related matrix-associated actin-dependent regulator of chromatin subfamily A member 2 (P51531 whole entry): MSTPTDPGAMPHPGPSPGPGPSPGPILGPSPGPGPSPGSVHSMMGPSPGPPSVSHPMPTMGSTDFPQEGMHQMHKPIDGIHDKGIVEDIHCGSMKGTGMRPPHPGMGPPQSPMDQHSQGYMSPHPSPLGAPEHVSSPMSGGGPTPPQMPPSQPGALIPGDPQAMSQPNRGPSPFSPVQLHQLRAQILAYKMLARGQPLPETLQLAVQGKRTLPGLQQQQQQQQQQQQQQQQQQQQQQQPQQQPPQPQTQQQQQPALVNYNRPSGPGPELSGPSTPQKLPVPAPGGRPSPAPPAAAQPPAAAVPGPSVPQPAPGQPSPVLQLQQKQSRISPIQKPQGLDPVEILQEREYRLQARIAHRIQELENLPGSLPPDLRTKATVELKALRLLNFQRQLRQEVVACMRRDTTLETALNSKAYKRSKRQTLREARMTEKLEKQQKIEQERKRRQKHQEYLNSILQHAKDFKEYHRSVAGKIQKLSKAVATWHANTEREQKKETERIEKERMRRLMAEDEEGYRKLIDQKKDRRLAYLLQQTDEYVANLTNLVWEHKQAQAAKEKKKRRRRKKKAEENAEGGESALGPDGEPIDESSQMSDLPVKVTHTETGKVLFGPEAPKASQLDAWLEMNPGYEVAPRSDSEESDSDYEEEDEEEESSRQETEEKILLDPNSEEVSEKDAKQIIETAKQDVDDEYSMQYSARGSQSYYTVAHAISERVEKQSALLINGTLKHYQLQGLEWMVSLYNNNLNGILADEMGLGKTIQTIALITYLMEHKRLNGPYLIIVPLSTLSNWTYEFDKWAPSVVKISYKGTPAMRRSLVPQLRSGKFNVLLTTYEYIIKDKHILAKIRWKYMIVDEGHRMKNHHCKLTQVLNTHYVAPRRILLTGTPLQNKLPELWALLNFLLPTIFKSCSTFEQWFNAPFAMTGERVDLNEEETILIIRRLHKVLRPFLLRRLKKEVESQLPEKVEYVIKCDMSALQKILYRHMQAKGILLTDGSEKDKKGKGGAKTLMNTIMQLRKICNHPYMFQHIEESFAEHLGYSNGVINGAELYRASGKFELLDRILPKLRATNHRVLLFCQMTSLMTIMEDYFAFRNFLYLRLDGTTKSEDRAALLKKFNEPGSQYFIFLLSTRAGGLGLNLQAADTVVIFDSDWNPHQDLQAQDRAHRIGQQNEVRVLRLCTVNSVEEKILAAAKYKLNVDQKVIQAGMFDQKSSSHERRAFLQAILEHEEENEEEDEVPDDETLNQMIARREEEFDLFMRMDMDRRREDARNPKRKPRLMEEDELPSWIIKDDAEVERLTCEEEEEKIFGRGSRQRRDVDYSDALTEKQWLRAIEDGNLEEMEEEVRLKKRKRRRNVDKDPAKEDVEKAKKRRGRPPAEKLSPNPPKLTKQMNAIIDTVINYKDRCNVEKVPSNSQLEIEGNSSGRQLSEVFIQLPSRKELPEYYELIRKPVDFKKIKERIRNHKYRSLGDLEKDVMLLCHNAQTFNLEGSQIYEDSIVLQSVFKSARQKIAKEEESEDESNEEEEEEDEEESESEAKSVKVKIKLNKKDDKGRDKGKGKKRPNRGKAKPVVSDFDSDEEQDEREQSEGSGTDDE

The target in test [3] is Beta-2 adrenergic receptor (Homo sapiens, UniProt P07550). The test is described as follows: ADRB2 activation measured by internalization – cell-based, FAP fluorogen, flow cytometry, cherry pick 1, dose response (AID 588763). The format is functional.
Test [4] deals with HEK293. The test is described as follows: cells. To be noted: Homo sapiens.
Test [5] relates to HEK293. Briefly: cells. To be noted: Homo sapiens. The source holds these as a separate data set.
Test [6] can be described thus: reduction of Shn3 3'UTR-driven luciferase in osteoblasts – cell-based, Clone20 osteoblasts, firefly luciferase, cherry-picked, dose response (AID 624132).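 Note: firefly luciferase luminescence from reporter carrying the Shn3 3'UTR in osteoblasts.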 Format: functional.
The nature of test [7]: HEK-293T viability loss after treatment – luminescence, T-cell screen hits, cytotoxicity control for TCR NF-kB inhibitor project, dose response (AID 489026).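 Note: cells exposed to compound about 14 hours before the viability readout.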 The format is functional, cell-based.
Test [8] can be described thus: cells. Format: functional, cell-based. To be noted: HEK-CNG.
The test system of test [9] is INS1. The test is described as follows: INS-1E survival protection against cytokine death – cell-based, luminescence, retest, dose response (AID 449756).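 Note: cell death triggered by IL-1 beta plus TNF-alpha plus IFN-gamma mixture; protective hits raise ATP signal compared with cytokine alone wells.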 As to conditions: Rattus norvegicus. Format: functional.
Test [10] is described as follows: non-specific 3'UTR reporter inhibition in Clone20-Shn3RL – cell-based, Renilla luciferase, cherry-picked, counter-screen for Shn3 inhibitor project, dose response (AID 624133). Format: functional.
The target of test [11] is T1, High affinity choline transporter 1 (Homo sapiens, UniProt Q9GZV3).
T1 sequence (Q9GZV3 whole entry): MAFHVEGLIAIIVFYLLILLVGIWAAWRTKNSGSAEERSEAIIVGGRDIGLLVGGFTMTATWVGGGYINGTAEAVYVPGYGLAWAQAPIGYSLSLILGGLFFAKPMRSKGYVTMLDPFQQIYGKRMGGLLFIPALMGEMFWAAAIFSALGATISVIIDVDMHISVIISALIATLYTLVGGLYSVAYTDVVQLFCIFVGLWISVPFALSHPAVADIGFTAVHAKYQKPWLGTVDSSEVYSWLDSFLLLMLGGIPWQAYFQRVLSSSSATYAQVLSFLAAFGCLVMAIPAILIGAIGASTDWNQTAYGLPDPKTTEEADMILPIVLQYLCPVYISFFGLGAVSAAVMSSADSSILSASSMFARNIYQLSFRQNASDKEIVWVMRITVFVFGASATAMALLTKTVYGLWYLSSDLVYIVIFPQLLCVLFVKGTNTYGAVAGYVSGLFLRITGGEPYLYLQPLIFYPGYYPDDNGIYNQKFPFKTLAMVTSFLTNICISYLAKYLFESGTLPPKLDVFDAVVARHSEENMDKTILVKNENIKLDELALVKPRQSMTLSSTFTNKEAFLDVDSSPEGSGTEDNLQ
The test is described as follows: human choline transporter blockers, potency – cell-based, 5-point CRC, membrane potential dye, dose response (AID 504840). The format is functional.

For test [12], the target named is Protein Wnt-3a (Mus musculus, UniProt P27467). The test is described as follows: antagonism of Wnt3a pathway luciferase reporter – Wnt-LIGHT cells, luminescence, selectivity assay for Gli-SUFU antagonist project, dose response (AID 651570).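 Note: Wnt-LIGHT reporter cells stimulated with conditioned medium from Wnt3a-producing cells.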 Format: functional. To be noted: read-out: IC50_Mean.
Sequence of Protein Wnt-3a (P27467 whole entry): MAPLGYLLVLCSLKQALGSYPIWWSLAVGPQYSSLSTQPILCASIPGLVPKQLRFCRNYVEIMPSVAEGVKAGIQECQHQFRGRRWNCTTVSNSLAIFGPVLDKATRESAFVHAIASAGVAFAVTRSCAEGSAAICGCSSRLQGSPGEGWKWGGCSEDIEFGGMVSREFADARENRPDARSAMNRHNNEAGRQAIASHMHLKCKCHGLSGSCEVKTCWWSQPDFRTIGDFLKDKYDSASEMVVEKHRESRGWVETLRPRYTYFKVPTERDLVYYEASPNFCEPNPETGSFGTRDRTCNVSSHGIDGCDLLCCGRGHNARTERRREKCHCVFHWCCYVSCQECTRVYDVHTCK
The target of test [13] is Galanin receptor type 3 (Homo sapiens, UniProt O60755). Briefly: Fluorescence-based cell-based primary high throughput dose response assay to identify antagonists of the Galanin Receptor 3 (GalR3). The format is functional.
Sequence of Galanin receptor type 3 (O60755 whole entry): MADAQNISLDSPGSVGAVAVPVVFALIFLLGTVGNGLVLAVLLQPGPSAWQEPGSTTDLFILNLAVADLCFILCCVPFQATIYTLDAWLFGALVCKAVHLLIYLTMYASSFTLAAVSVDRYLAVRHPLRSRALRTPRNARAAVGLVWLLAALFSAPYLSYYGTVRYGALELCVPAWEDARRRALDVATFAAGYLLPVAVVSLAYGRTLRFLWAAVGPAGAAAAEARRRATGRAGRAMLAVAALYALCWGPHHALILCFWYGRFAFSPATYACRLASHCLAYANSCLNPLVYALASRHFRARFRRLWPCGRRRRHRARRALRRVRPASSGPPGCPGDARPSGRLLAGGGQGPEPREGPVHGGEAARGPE
The target in test [14] is T2, Scavenger receptor class B member 1 (Mus musculus, UniProt Q61009).
T2 sequence (Q61009 whole entry): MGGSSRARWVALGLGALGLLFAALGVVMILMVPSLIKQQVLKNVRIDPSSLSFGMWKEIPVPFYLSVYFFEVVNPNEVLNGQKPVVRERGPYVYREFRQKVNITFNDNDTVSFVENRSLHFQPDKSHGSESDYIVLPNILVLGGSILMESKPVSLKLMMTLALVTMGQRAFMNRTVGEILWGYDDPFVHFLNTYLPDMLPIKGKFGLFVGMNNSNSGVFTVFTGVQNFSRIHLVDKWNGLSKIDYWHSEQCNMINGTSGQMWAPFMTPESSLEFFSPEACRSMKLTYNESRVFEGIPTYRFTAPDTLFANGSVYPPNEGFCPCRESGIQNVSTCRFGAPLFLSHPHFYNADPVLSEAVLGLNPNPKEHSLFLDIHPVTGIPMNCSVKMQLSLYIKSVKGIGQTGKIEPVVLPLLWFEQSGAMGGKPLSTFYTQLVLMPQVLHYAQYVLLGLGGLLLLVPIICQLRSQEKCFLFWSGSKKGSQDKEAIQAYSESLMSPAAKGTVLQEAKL
Briefly: blockers of DiI-HDL lipid transfer via SR-BI – cell-based, ldlA[mSR-BI] CHO, DiI fluorescence, dry powder, set 10, dose response (AID 624029). Format: functional.

Test [15] deals with T2, Scavenger receptor class B member 1. Briefly: mouse SR-BI DiI-HDL transfer blockers – ldlA[mSR-BI] CHO cells, fluorescence plate reader, dry powder, set 9, dose response (AID 623880). Format: functional, cell-based.
Test [16] is described as follows: cells. Format: functional, cell-based.
Test [17] addresses T3, Trace amine-associated receptor 1 (Homo sapiens, UniProt Q96RJ0). Briefly: Fluorescence-based cell-based high throughput dose response assay to identify agonists of the human trace amine associated receptor 1 (TAAR1). The format is functional.
The target in test [18] is T3, Trace amine-associated receptor 1. The test is described as follows: Counterscreen for agonists of the human trace amine associated receptor 1 (hTAAR1): Fluorescence-based cell-based high throughput dose response assay to identify hTAAR1 agonist that also desensitize TAAR1 receptor response. The format is functional.
Test [19] in a line: cells. Format: functional, cell-based. This is another data set of the same source.
Test [20] concerns the target Fructose-bisphosphate aldolase (Mycobacterium tuberculosis, UniProt P9WQA3). The test is described as follows: Fluorescence-based biochemical high throughput dose response assay for inhibitors of the fructose-bisphosphate aldolase (FBA) of M. tuberculosis. Format: functional.
The target of test [21] is Beta-galactosidase (Escherichia coli, UniProt Q8VNN2). Briefly: Dose response counterscreen for EBI2 assay utilizing the enzyme, b-galactosidase. The format is functional.
Sequence of Beta-galactosidase (Q8VNN2 whole entry): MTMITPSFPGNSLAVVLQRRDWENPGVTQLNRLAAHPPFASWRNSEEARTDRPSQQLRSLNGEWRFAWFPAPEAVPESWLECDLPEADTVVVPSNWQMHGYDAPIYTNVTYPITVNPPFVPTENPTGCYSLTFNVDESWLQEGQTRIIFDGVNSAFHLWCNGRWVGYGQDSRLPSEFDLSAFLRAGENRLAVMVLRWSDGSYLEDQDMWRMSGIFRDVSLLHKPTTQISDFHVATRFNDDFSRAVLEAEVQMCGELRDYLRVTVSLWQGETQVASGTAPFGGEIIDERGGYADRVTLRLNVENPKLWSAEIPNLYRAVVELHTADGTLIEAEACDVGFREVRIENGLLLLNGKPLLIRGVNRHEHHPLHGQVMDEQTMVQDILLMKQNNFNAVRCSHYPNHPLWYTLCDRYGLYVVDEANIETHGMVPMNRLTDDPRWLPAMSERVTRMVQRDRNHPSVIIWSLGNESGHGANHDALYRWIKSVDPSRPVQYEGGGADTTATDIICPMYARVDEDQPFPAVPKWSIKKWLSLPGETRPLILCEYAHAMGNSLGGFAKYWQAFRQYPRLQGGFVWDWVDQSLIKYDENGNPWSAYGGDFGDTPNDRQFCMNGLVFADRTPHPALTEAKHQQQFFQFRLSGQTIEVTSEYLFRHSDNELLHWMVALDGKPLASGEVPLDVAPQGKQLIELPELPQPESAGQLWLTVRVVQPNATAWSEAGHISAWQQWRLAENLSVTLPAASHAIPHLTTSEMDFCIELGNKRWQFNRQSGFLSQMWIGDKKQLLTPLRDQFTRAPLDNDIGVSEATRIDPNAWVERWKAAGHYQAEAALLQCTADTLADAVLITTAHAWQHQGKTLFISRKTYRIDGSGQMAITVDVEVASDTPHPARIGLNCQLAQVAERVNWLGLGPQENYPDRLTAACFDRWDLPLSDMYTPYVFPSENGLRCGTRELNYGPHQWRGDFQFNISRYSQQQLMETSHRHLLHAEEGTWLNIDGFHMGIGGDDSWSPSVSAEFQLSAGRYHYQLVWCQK
Test [22] in a line: L6 myocyte viability loss – cell-based, plate reader, cherry-pick, cytotoxicity control, dose response (AID 651896). The format is functional.
Test [23] is described as follows: Inhibition of Plasmodium falciparum NF54 Measured in Cell-Based System Using Plate Reader - 2138-11_Inhibitor_Dose_CherryPick_Activity. Format: functional.
Test [24] can be described thus: antileishmanial activity on axenic amastigotes – plate reader, cherry pick, dose response (AID 651891). To be noted: Leishmania donovani. Format: functional, cell-based.
The nature of test [25]: intracellular Trypanosoma cruzi inhibitors in host cells – cell-based, plate reader, cherry-pick samples, set 3, dose response (AID 651818).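 Note: compounds incubated with infected cells for about four days.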 The format is functional.
Test [26] in a line: Inhibition of T. cruzi Tulahuen strain amastigotes in L-6 muscle cells Measured in Cell-Based and Microorganism Combination System Using Plate Reader - 2138-03_Inhibitor_Dose_CherryPick_Activity. The format is functional. To be noted: Rattus norvegicus, L6.
Test [27] in a line: anti-trypanosomal activity in BESM host cells – imaging, CA-I/72 strain, bovine embryo skeletal muscle, dry powder, dose response (AID 651885). Format: functional, cell-based.
Test [28] in a line: African trypanosome bloodstream form growth inhibition – STIB900 strain, plate reader, cherry pick, dose response (AID 651893). Format: functional, cell-based, Trypanosoma brucei rhodesiense. As to conditions: Trypanosoma brucei.
In test [29] the target is ATP-dependent translocase ABCB1 (Homo sapiens, UniProt P08183). The test is described as follows: P-gp JC-1 efflux blockers potency – Jurkat-DNR cells, flow cytometry, follow-up, dose response (AID 489002). The format is functional.
Sequence of ATP-dependent translocase ABCB1 (P08183 whole entry): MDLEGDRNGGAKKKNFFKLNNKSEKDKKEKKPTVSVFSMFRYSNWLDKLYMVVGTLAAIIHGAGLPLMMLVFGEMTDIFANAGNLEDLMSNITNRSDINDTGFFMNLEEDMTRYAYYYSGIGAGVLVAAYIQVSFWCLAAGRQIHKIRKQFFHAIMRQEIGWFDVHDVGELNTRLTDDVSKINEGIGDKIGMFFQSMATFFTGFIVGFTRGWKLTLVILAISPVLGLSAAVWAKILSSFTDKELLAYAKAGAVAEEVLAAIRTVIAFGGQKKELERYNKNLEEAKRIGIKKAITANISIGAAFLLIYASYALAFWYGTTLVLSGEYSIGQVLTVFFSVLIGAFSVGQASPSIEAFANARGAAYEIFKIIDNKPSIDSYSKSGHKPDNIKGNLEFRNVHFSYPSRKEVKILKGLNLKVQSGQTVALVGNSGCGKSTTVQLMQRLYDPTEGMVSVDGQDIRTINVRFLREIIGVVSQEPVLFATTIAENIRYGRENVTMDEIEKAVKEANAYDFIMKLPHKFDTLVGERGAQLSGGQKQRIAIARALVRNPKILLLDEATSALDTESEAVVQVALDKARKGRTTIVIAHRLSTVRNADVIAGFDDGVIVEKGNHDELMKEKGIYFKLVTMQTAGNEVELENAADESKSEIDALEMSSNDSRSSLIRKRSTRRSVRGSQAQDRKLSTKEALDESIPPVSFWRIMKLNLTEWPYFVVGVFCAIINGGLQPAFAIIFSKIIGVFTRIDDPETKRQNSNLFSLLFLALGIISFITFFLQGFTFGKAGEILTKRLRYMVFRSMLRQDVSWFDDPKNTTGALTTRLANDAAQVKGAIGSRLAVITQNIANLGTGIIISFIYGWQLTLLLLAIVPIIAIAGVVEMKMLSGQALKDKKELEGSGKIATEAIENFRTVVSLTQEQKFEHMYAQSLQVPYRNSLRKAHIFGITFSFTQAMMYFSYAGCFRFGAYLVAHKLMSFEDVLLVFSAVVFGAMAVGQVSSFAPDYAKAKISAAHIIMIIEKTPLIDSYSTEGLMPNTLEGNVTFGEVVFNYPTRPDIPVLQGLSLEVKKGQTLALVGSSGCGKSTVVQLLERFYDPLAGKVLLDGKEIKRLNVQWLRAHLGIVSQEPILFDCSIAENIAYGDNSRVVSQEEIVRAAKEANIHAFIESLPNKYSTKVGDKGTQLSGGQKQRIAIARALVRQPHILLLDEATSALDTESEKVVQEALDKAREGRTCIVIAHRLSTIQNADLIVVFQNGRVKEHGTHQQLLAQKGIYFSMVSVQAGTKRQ
A short description of test [30]: viability loss in mouse NIH3T3 cells – cell-based, CellTiter-Glo luminescence, dry powder, cytotoxicity control for PglD inhibitor project, dose response (AID 652044). Format: functional.

T3 sequence (Q96RJ0 whole entry): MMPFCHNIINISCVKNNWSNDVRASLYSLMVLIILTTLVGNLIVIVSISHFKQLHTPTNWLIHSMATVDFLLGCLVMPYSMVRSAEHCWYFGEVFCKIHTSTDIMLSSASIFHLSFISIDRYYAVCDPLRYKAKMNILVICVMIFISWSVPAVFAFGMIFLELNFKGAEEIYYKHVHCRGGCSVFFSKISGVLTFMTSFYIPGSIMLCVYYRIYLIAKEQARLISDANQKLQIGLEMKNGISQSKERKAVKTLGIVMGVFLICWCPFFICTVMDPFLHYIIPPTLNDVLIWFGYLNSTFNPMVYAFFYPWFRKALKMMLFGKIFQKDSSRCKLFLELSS

Consider `CC1(C)Cc2c(c(-c3ccco3)nc3sc4c(NCCCO)ncnc4c23)CO1`, for which the EC50 is > 91.2 µM (inactive) in [1]; > 91.2 µM (inactive) in test [2]; 0.0207 µM (active) in [3]; > 59.6 µM (inactive) in test [4]; > 59.6 µM (inactive) in test [5].

Regarding `CCOC(=O)CC1CCCCN1C(=O)c1cc(COc2cccc3cnccc23)on1` (stereo not given), the AC50 in [6] was 0.713 µM (active); in test [9], 5.89 µM (active); in [10], 0.67 µM (active). In addition, the IC50 is > 80 µM (inactive) in test [7], 11 µM (active) in [11], 0.777 µM (active) in test [12] and 0.448 µM (active) in test [13]. Besides, in [8], the EC50 is > 29.9 µM (inactive).

For `COc1ccc2c(c1)CC(C1(O)C(=O)N(C)c3ccccc31)C2=O` (stereo not given), the AC50 in test [14] and in [15] was > 70 µM (inactive) in each case.

Take `Cc1cccc(CSC(=N)N)c1`: the IC50 was > 30 µM (inactive) in test [16] and 16.9 µM (inactive) in test [18]. The EC50 in test [17] is 1.21 µM (active); in test [19], > 30 µM (inactive).

In the case of `CN(C)c1nc(OCc2ccccc2)c2ncc(=O)[nH]c2n1`, the IC50 in [20] is 2.82 µM (active).

For `COc1ccc(N2CCN(C(=O)c3cc(-c4ccc(F)cc4)[nH]c3C)CC2)cc1`, in test [21], the IC50 is > 80 µM (inactive).

Take `C[C@@H]1CN([C@@H](C)CO)C(=O)c2cccc(NC(=O)c3ccncc3)c2O[C@H]1CN(C)Cc1ccccc1`: the IC50 in [22] was > 100 µM (inactive); in [23], 4.77 µM (inactive); in test [24], > 100 µM (inactive); in [26], 4.77 µM (inactive); in test [27], 10 µM (inconclusive); in [28], 5.33 µM (inactive). The AC50 in test [25] was 0.08 µM (active).

Turning to `CC1CN(C(=O)c2ccoc2)CCN1c1cc(-c2ccco2)nc2cc(-c3ccccc3)nn12` (stereo not given), the EC50 in [29] stood at 0.0002986 µM.

With `C[C@@H]1CN([C@@H](C)CO)C(=O)c2cc(NC(=O)Nc3ccc(F)cc3)ccc2O[C@@H]1CN(C)CC1CCCCC1`, the AC50 in test [30] was 43.4 µM (active).
